Reference: patent US9346762B2, “Pyrazole derivatives and their use as LPAR5 antagonists” (SANOFI, priority 2012, dated 2016)

How the values were obtained:
Format in all cases: cell-based
[1] = test system: washed human blood platelets (platelet LPA receptor LPAR5); test: Aggregation assay for washed human blood platelets (LPA-induced); settings: reduction of maximal LPA-induced aggregation, 5 min preincubation at 37° C.
Experimental: A) Aggregation Assay for Washed Human Blood Platelets (Thrombocytes)
Whole blood was collected from healthy volunteers using 3×20 ml syringes containing each 1/10 volume of buffered citrate. The anticoagulated whole blood was transferred into 50 ml polypropylene conical tubes (30 ml per tube). The tubes were centrifuged for 10 minutes at 150×g at room temperature without using the centrifuge brake. This procedure results in a lower phase of cellular components and a supernatant (upper phase) of platelet rich plasma (PRP). The PRP phase was collected from each tube and pooled for each donor. To avoid carry over of cellular components following first centrifugation, approximately 5 ml of PRP was left in the tube. The platelet concentration was determined using a ABX Micros 60 counter. The PRP phase was transferred to a new 50 ml tube. After 10 minutes standing at room temperature, 1 μl PGI2 (1 mM in Tris-HCl/pH 8.8) and 180 μl ACD/A were added per ml PRP. The PRP was then transferred to new 10 ml tube and centrifuged for 10 minutes at 500×g. After centrifugation a cellular pellet is visible at the bottom of the tube. The supernatant was carefully discarded and the cellular pellet, consisting of human blood platelets was then dissolved in 10 ml buffer T (buffer T composition: 145 mM NaCl, 5 mM KCl, 0.1 mM MgCl2×6 H2O, 15 mM HEPES, 5.5 mM glucose, pH 7.4). Platelet concentration in this solution was determined and buffer T was added to obtain a final concentration of 3.5×10^5 platelets per ml.
After 10 minutes at room temperature, 1 μl PGI2 per ml platelet solution was added and distributed into new 10 ml tubes. After a centrifugation step, 10 minutes at 500×g, supernatant was discarded and the platelets were resuspended in buffer T to a final concentration of 3.5×10^5 platelets per ml buffer T. Before use, platelet-containing buffer equilibrated for 30 minutes at room temperature. The human platelet aggregation assay was performed in single use cuvettes using the Platelet Aggregation Profiler® (PAP-4 or -8E, BIO/DATA Corporation). For a single experiment, 320 μl of platelet solution were transferred into an assay cuvette, 20 μl of calcium citrate solution (10 mM in H2O) and 20 μl of fibrinogen solution (20 mg/ml H2O) were added. The aggregation assay was performed in the assay cuvette at 37° C. and with 1.200 rpm stirring. To determine the EC50, eight assay cuvettes were loaded as described above with different concentrations of LPA. Aggregation was measured over 6 minutes at 37° C. with 1200 rpm (revolutions per minute) stirring. Results of the assay are expressed as % activation, and are calculated using maximum aggregation (Tmax) or area under curve (AUC) of the absorbance over 6 minutes. The inhibitory effect (IC50) of the test compounds was determined as the reduction of the maximal aggregation. Test compound was added prior starting the experiment with an incubation time of the test compound of 5 minutes at 37° C. with 1200 rpm stirring. The IC50 data of the above described platelet aggregation assay using human washed platelets for exemplary compounds of the present invention are shown in Table 1.

[2] = test system: human mast cell line HMC-1 (LPA receptor LPAR5); test: FLIPR assay, intracellular Ca2+ release in human mast cell line HMC-1; settings: HMC1, LPA-stimulated Ca2+ release, HMC-1 cells, compound added 10 minutes prior to LPA
Source text: (§1) B) Use of the Fluorometric Imaging Plate Reader (FLIPR) Assay for the Determination of Intracellular Ca^2+ Release in Human Mast Cell Line HMC-1 and the Murine Microglia cell line BV-2
(§2) The ability of the compounds of the formula Ito inhibit or bind the LPA receptor LPAR5 can be assessed by determining the intracellular Ca^2+ release in human or animal cells. For the analysis of activating potential of LPA and the inhibitory effects of compounds of the formula I two cell lines were used with high LPAR5 expression, the human mast cell line HMC-1 and the murine microglia cell line BV-2 (FIGS. 1 and 2). For the FLIPR assay using human mast cells in a 96-well-format, HMC-1 suspension cells from flask culture were harvested, resuspended and counted. 14×10^6 HMC-1 cells were transferred into a new 50 ml tube, centrifuged for 3 minutes at 540×g. The resulting cell pellet at the bottom of the tube was resuspended with 15 ml loading buffer (loading buffer contained HBSS buffer (pH 7.4), 0.1% BSA (bovine serum albumin), 2 μM FLUO-4 dye; HBSS buffer (pH 7.4) contained 1×HBSS, 20 mM HEPES, 0.01% Pluronic F-127, 2.5 mM Probenicid).
Cells in loading buffer were incubated for 45-60 minutes at 37° C. After incubation cells were centrifuged for 3 minutes at 540×g and resuspended with 21 ml of HBSS buffer (pH 7.4). Each well of a poly-D-lysine coated 96-well-plate was filled with 150 μl cell solution, an equivalent of 100 000 cells/well. The 96-well-plate was centifuged for 2 minutes at 100×g (without brake) prior a recovery time of 30 minutes at 37° C. After this procedure cells were stimulated with LPA (in HBSS pH 7.4 and 0.1% BSA) to determine the EC50 of LPA in HMC-1 cells. For the determination of the inhibitory effect of compounds of the formula I, test compounds were added to the cells in the 96-well-plate 10 minutes prior the addition of LPA. Results of the assay are expressed as % activation, and are calculated using maximum peak of activation (Amax). The IC50 data of the above described FLIPR assay using human mast cell line HMC-1 for exemplary compounds of the present invention are shown in Table 2. Adherent BV-2 cells were seeded onto poly-D-lysine coated 96-well-plates (100000 cells/well) the day before performing the FLIPR assay. The density of the cells in the 96-well-plate at the day of the FLIPR assay should be 90%. After aspiration of the culture media, BV-2 cells were incubated for 30 minutes at 37° C. with loading buffer and recovered in 150 μl HBSS buffer for 30 minutes at 37° C. After this procedure cells were stimulated with LPA (in HBSS pH 7.4 and 0.1% BSA) to determine the EC50 of LPA in BV-2 cells. For the determination of the inhibitory effect of compounds of the formula I, test compounds were added to the cells in the 96-well-plate 10 minutes prior the addition of LPA. The IC50 data of the above described FLIPR assay using the murine microglia cell line BV-2 for exemplary compounds of the present invention are shown in Table 3.

[3] = test system: murine microglia cell line BV-2 (LPA receptor LPAR5); test: FLIPR assay, intracellular Ca2+ release in murine microglia cell line BV-2; settings: Mus musculus; LPA-stimulated Ca2+ release, BV-2 cells, compound added 10 minutes prior to LPA
Source text: as §1, §2
Cells in loading buffer were incubated for 45-60 minutes at 37° C. […] Results of the assay are expressed as % activation, and are calculated using maximum peak of activation (Amax). […]

Compound | IC50 [1] | IC50 [2] | IC50 [3]
Cc1c(COC(C)C(=O)O)nn(-c2ccc(Cl)cc2Cl)c1-c1ccc(Cl)cc1 (stereo not shown) [Example 8, 2-[5-(4-Chloro-phenyl)-1-(2,4-dichloro-phenyl)-4-methyl-1H-pyrazol-3-ylmethoxy]-propionic acid] | 4.1 µM | 6.3 µM | –
Cc1c(COC(C)(C)C(=O)O)nn(-c2ccc(Cl)cc2Cl)c1-c1ccc(Cl)cc1 [Example 1, 2-[5-(4-Chloro-phenyl)-1-(2,4-dichloro-phenyl)-4-methyl-1H-pyrazol-3-ylmethoxy]-2-methyl-propionic acid] | – | 8.3 µM | –
CCC(OCc1nn(-c2ccc(Cl)cc2Cl)c(-c2ccc(Cl)cc2)c1C)C(=O)O (stereo not shown) [Example 7, 2-[5-(4-Chloro-phenyl)-1-(2,4-dichloro-phenyl)-4-methyl-1H-pyrazol-3-ylmethoxy]-butyric acid] | 4.7 µM | 11.4 µM | –
Cc1c(COC(C)(C)C(=O)NCc2ccc(C(=O)O)cc2)nn(-c2ccc(Cl)cc2Cl)c1-c1ccc(Cl)cc1 [Example 9, 4-({2-[5-(4-Chloro-phenyl)-1-(2,4-dichloro-phenyl)-4-methyl-1H-pyrazol-3-ylmethoxy]-2-methyl-propionylamino}-methyl)-benzoic acid] | 2.9 µM | 1.3 µM | 1.8 µM
Cc1c(COC(C)(C)C(=O)NCc2ccc(C(=O)O)cc2)nn(-c2ccc(Cl)cc2Cl)c1-c1ccc(C(F)(F)F)cc1 [Example 10, 4-({2-[1-(2,4-Dichloro-phenyl)-4-methyl-5-(4-trifluoromethyl-phenyl)-1H-pyrazol-3-ylmethoxy]-2-methyl-propionylamino}-methyl)-benzoic acid] | – | 0.03 µM | 0.2 µM
Cc1c(COC(C)(C)C(=O)O)nn(-c2ccc(Cl)cc2Cl)c1-c1ccc(C(F)(F)F)cc1 [Example 4, 2-[1-(2,4-Dichloro-phenyl)-4-methyl-5-(4-trifluoromethyl-phenyl)-1H-pyrazol-3-ylmethoxy]-2-methyl-propionic acid] | – | 6.6 µM | –
Cc1c(COCC(=O)NCc2ccc(C(=O)O)cc2)nn(-c2ccc(Cl)cc2Cl)c1-c1ccc(Cl)cc1 [Example 11, 4-({2-[5-(4-Chloro-phenyl)-1-(2,4-dichloro-phenyl)-4-methyl-1H-pyrazol-3-ylmethoxy]-acetylamino}-methyl)-benzoic acid] | – | 8.6 µM | –
Cc1c(COC2(C(=O)O)CCCC2)nn(-c2ccc(Cl)cc2Cl)c1-c1ccc(Cl)cc1 [Example 3, 1-[5-(4-Chloro-phenyl)-1-(2,4-dichloro-phenyl)-4-methyl-1H-pyrazol-3-ylmethoxy]-cyclopentanecarboxylic acid] | – | 8.8 µM | –

The next lines start with the values.

IC50 [1] | IC50 [2] | IC50 [3] | Compound
4.3 µM | 6.3 µM | – | CCC(OCc1nn(-c2ccc(Cl)cc2Cl)c(-c2ccc(Cl)cc2)c1C)C(=O)NCc1ccc(C(=O)O)cc1 (stereo not shown) [Example 12, 4-({2-[5-(4-Chloro-phenyl)-1-(2,4-dichloro-phenyl)-4-methyl-1H-pyrazol-3-ylmethoxy]-butyrylamino}-methyl)-benzoic acid]
15.9 µM | 4.2 µM | – | Cc1c(COC(C(=O)Nc2ccc(C(=O)O)cc2)C(C)C)nn(-c2ccc(Cl)cc2Cl)c1-c1ccc(Cl)cc1 (stereo not shown) [Example 17, 4-{2-[5-(4-Chloro-phenyl)-1-(2,4-dichloro-phenyl)-4-methyl-1H-pyrazol-3-ylmethoxy]-3-methyl-butyrylamino}-benzoic acid]
– | 1.3 µM | – | Cc1c(COC(C)(C)C(=O)NCc2ccc(C(=O)O)cc2)nn(-c2ccccc2Cl)c1-c1ccc(C(F)(F)F)cc1 [Example 13, 4-({2-[1-(2-Chloro-phenyl)-4-methyl-5-(4-trifluoromethyl-phenyl)-1H-pyrazol-3-ylmethoxy]-2-methyl-propionylamino}-methyl)-benzoic acid]
6.5 µM | 8.8 µM | – | Cc1c(COC(C)C(=O)NCc2ccc(C(=O)O)cc2)nn(-c2ccc(Cl)cc2Cl)c1-c1ccc(Cl)cc1 (stereo not shown) [Example 15, 4-({2-[5-(4-Chloro-phenyl)-1-(2,4-dichloro-phenyl)-4-methyl-1H-pyrazol-3-ylmethoxy]-propionylamino}-methyl)-benzoic acid]
– | 16 µM | – | CC(OCc1cn(-c2ccccc2)nc1-c1ccccc1)C(=O)Nc1ccc(C(=O)O)cc1 (stereo not shown) [Example 22, 4-[2-(1,3-Diphenyl-1H-pyrazol-4-ylmethoxy)-propionylamino]-benzoic acid]
– | 4.1 µM | – | Cc1c(COC(C)C(=O)Nc2ccc(C(=O)O)cc2)nn(-c2ccc(Cl)cc2Cl)c1-c1ccc(C(F)(F)F)cc1 (stereo not shown) [Example 16, 4-{2-[1-(2,4-Dichloro-phenyl)-4-methyl-5-(4-trifluoromethyl-phenyl)-1H-pyrazol-3-ylmethoxy]-propionylamino}-benzoic acid]
– | 3.4 µM | – | Cc1c(COC(C)(C)C(=O)NCc2ccc(C(=O)O)cc2)nn(-c2ccc(Cl)cc2)c1-c1ccc(C(F)(F)F)cc1 [Example 14, 4-({2-[1-(4-Chloro-phenyl)-4-methyl-5-(4-trifluoromethyl-phenyl)-1H-pyrazol-3-ylmethoxy]-2-methyl-propionylamino}-methyl)-benzoic acid]
– | 3.8 µM | – | Cc1c(COC(C)C(=O)Nc2ccc(C(=O)O)cc2)nn(-c2ccc(Cl)cc2)c1-c1ccc(C(F)(F)F)cc1 (stereo not shown) [Example 18, 4-{2-[1-(4-Chloro-phenyl)-4-methyl-5-(4-trifluoromethyl-phenyl)-1H-pyrazol-3-ylmethoxy]-propionylamino}-benzoic acid]
– | 5.2 µM | – | Cc1c(COC(C)C(=O)Nc2ccc(C(=O)O)cc2)nn(-c2ccccc2Cl)c1-c1ccc(C(F)(F)F)cc1 (stereo not shown) [Example 20, 4-{2-[1-(2-Chloro-phenyl)-4-methyl-5-(4-trifluoromethyl-phenyl)-1H-pyrazol-3-ylmethoxy]-propionylamino}-benzoic acid]
